Experimental data taken from patent publication US10738015B2, “1,3-diaza-spiro-[3.4]-octane derivatives” (priority 2017, dated 2020).
Read-outs that look alike come from different tables or passages of the source.

Columns and labels:
[1] = target: human nociceptin/orphanin FQ peptide (hNOP) receptor (Homo sapiens (Human), UniProt P41146); test: hNOP receptor binding assay (SPA)
Experimental: Human Nociceptin/Orphanin FQ Peptide (hNOP) Receptor Binding Assay
The hNOP receptor binding assay was performed as homogeneous SPA-assay (scintillation proximity assay) using the assay buffer 50 mM TRIS-HCl, 10 mM MgCl2, 1 mM EDTA (pH 7.4). The final assay volume (250 μl/well) included 0.5 nM of [leucyl-^3H]nociceptin as ligand (PerkinElmer Life Sciences. Inc. Boston, Mass. USA) and either test compound in dilution series or 1 μM unlabelled nociceptin for determination of unspecific binding. The test compound was diluted with 25% DMSO in H2O to yield a final 0.5% DMSO concentration which also served as a respective vehicle control. The assay was started by adding wheat germ agglutinin coated SPA beads (GE Healthcare UK Ltd. Buckinghamshire. UK) which had been preloaded with hNOP receptor membranes (PerkinElmer Life Sciences. Inc. Boston, Mass. USA). After incubation for 60 minutes at RT and centrifugation for 20 minutes at 500 rpm the signal rate was measured by means of a 1450 Microbeta Trilux ß-counter (PerkinElmer Life Sciences/Wallac. Turku. Finland). Half-maximal inhibitory concentration (IC50) values reflecting 50% displacement of [^3H]nociceptin-specific receptor binding were calculated by nonlinear regression analysis and Ki values were calculated by using the Cheng-Prusoff equation. (Cheng and Prusoff. 1973).

[2] = target: human mu-opioid peptide (hMOP) receptor (Homo sapiens (Human), UniProt P35372); test: hMOP receptor binding assay (SPA)
Experimental: Human Mu-Opioidpeptide (hMOP) Receptor Binding Assay
The hMOP receptor binding assay was performed as homogeneous SPA-assay (scintillation proximity assay) using the assay buffer 50 mM TRIS-HCl (pH 7.4) supplemented with 0.052 mg/ml bovine serum albumin (Sigma-Aldrich Co. St. Louis, Mo.). […] The assay was started by adding wheat germ agglutinin coated SPA beads (GE Healthcare UK Ltd. Buckinghamshire. UK) which had been preloaded with hMOP receptor membranes (PerkinElmer Life Sciences. Inc. Boston, Mass. USA).

[3] = Ki, displacement of [leucyl-3H]nociceptin, hNOP receptor membranes, read-out: hNOP Ki [nM] or % inhibition at 1 μM
[4] = read-out: hMOP Ki [nM] or % inhibition at 1 μM
[5] = Ki, displacement of [3H]naloxone, hMOP receptor membranes, read-out: hMOP Ki [nM] or % inhibition at 1 μM

human mu-opioid peptide (hMOP) receptor, sequence (P35372 whole entry): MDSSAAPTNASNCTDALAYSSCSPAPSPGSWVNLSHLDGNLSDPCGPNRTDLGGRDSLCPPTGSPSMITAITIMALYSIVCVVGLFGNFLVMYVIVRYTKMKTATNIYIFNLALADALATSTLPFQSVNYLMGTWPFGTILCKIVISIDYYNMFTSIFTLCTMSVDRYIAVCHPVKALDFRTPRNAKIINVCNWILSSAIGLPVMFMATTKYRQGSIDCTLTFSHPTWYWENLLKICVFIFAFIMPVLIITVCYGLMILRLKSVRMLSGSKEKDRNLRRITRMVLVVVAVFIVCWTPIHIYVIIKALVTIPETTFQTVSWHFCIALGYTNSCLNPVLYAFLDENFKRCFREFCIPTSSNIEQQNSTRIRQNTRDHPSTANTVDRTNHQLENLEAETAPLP

`CN(C)[C@]1(c2ccccc2)C[C@@]2(CN(CC(N)=O)C(=O)N2)C1` [SC-1, Cis-2-(2-(dimethylamino)-6-oxo-2-phenyl-5,7-diazaspiro[3.4]octan-7-yl)acetamide] was tested, and the Ki [1, 3] was 200 nM and the inhibition at 1 µM [2, 4] was 19%.
Compound `CN(C)[C@]1(c2ccccc2)C[C@@]2(CN(CC(=O)N3CCS(=O)(=O)CC3)C(=O)N2)C1` [SC-2, cis-2-(dimethylamino)-7-(2-(1,1-dioxidothiomorpholino)-2-oxoethyl)-2-phenyl-5,7-diazaspiro[3.4]octan-6-one] has a Ki [1, 3] of 850 nM and an inhibition at 1 µM [2, 4] of 12%.
`COc1nc(C#N)ncc1N1C[C@]2(C[C@](c3ccccc3)(N(C)C)C2)NC1=O` [SC-3, Cis-5-(2-(dimethylamino)-6-oxo-2-phenyl-5,7-diazaspiro[3.4]octan-7-yl)-4-methoxypyrimidine-2-carbonitrile] showed a Ki [1] of 370 nM.
In the case of `CN(C)[C@]1(c2ccccc2)C[C@]2(CN(CC(=O)N3CCS(=O)(=O)CC3)C(=O)N2)C1` [SC-4, trans-2-(dimethylamino)-7-(2-(1,1-dioxidothiomorpholino)-2-oxoethyl)-2-phenyl-5,7-diazaspiro[3.4]octan-6-one], the Ki [1, 3] is reported as 860 nM and the Ki [2, 5] is reported as 15 nM.
Work on `COc1nc(C#N)ncc1N1C[C@]2(C[C@@](c3ccccc3)(N(C)C)C2)NC1=O` [SC-5, trans-5-(2-(dimethylamino)-6-oxo-2-phenyl-5,7-diazaspiro[3.4]octan-7-yl)-4-methoxypyrimidine-2-carbonitrile] yielded a Ki [1, 3] of 800 nM and a Ki [2, 5] of 99 nM.
`CN(C)[C@]1(c2ccccc2)C[C@@]2(CN(CC(=O)N3CCS(=O)(=O)CC3)C(=O)N2CC2CCC2)C1` [SC-6, Cis-5-(cyclobutylmethyl)-2-(dimethylamino)-7-(2-(1,1-dioxidothiomorpholino)-2-oxoethyl)-2-phenyl-5,7-diazaspiro[3.4]octan-6-one] gave a Ki [1] of 1 nM.
Compound `CN(C)[C@]1(c2ccccc2)C[C@]2(CN(CC(=O)N3CCS(=O)(=O)CC3)C(=O)N2CC2CCC2)C1` [SC-7, trans-5-(cyclobutylmethyl)-2-(dimethylamino)-7-(2-(1,1-dioxidothiomorpholino)-2-oxoethyl)-2-phenyl-5,7-diazaspiro[3.4]octan-6-one] has a Ki [1, 3] of 230 nM and a Ki [2, 5] of 2 nM.
For `CN(C)[C@]1(c2ccccc2)C[C@]2(CN(CC(N)=O)C(=O)N2CC2CCC2)C1` [SC-8, cis-2-(5-(cyclobutylmethyl)-2-(dimethylamino)-6-oxo-2-phenyl-5,7-diazaspiro[3.4]octan-7-yl)acetamide], the Ki [1, 3] was 3 nM and the Ki [2, 5] was 100 nM.
`CN(C)[C@]1(c2ccccc2)C[C@]2(CN(CC(N)=O)C(=O)N2CC2CCC2)C1` [SC-9, Trans-2-(5-(cyclobutylmethyl)-2-(dimethylamino)-6-oxo-2-phenyl-5,7-diazaspiro[3.4]octan-7-yl)acetamide] gave a Ki [1, 3] of 380 nM and a Ki [2] of 48 nM.
With `COc1nc(C#N)ncc1N1C[C@]2(C[C@](c3ccccc3)(N(C)C)C2)N(CC2CCC2)C1=O` [SC-10, cis-5-(5-(cyclobutylmethyl)-2-(dimethylamino)-6-oxo-2-phenyl-5,7-diazaspiro[3.4]octan-7-yl)-4-methoxypyrimidine-2-carbonitrile] the Ki [1, 3] was 2 nM and the Ki [2, 5] was 157 nM.
`COc1nc(C#N)ncc1N1C[C@]2(C[C@@](c3ccccc3)(N(C)C)C2)N(CC2CCC2)C1=O` [SC-11, trans-5-(5-(cyclobutylmethyl)-2-(dimethylamino)-6-oxo-2-phenyl-5,7-diazaspiro[3.4]octan-7-yl)-4-methoxypyrimidine-2-carbonitrile] showed a Ki [1, 3] of 99 nM and a Ki [2, 5] of 3 nM.
For `Cc1nc(N2CCOCC2)ncc1N1C[C@]2(C[C@](c3ccccc3)(N(C)C)C2)NC1=O` [SC-12, cis-2-(dimethylamino)-7-(4-methyl-2-morpholinopyrimidin-5-yl)-2-phenyl-5,7-diazaspiro[3.4]octan-6-one], the Ki [1, 3] was 630 nM and the inhibition at 1 µM [2, 4] was 13%.
Compound `Cc1cc(N2CCC2)ncc1N1C[C@]2(C[C@](c3ccccc3)(N(C)C)C2)NC1=O` [SC-13, cis-7-(6-(azetidin-1-yl)-4-methylpyridin-3-yl)-2-(dimethylamino)-2-phenyl-5,7-diazaspiro[3.4]octan-6-one] has a Ki [1, 3] of 860 nM and an inhibition at 1 µM [2, 4] of 18%.
In the case of `Cc1cc(C#N)ncc1N1C[C@]2(C[C@](c3cccc(F)c3)(N(C)C)C2)N(CC2CC2)C1=O` [SC-15, cis-5-(5-(cyclopropylmethyl)-2-(dimethylamino)-2-(3-fluorophenyl)-6-oxo-5,7-diazaspiro[3.4]octan-7-yl)-4-methylpicolinonitrile], the Ki [1] is reported as 13 nM and the Ki [2, 5] is reported as 1330 nM.
`Cc1cc(C#N)cnc1N1C[C@]2(C[C@](c3cccc(F)c3)(N(C)C)C2)N(CC2CC2)C1=O` [SC-16, Cis-6-(5-(cyclopropylmethyl)-2-(dimethylamino)-2-(3-fluorophenyl)-6-oxo-5,7-diazaspiro[3.4]octan-7-yl)-5-methylnicotinonitrile] gave a Ki [1, 3] of 31 nM and a Ki [2, 5] of 1320 nM.
Compound `CN(C)[C@]1(c2cccc(F)c2)C[C@@]2(CN(c3ccc(OC(F)(F)F)cn3)C(=O)N2CC2CC2)C1` [SC-18, Cis-5-(cyclopropylmethyl)-2-(dimethylamino)-2-(3-fluorophenyl)-7-(5-(trifluoromethoxy)pyridin-2-yl)-5,7-diazaspiro[3.4]octan-6-one] has a Ki [1, 3] of 55 nM and a Ki [2, 5] of 805 nM.
`Cc1cc(N2CCOCC2)ncc1N1C[C@]2(C[C@](c3ccccc3)(N(C)C)C2)NC1=O` [SC-19, Cis-2-(dimethylamino)-7-(4-methyl-6-morpholinopyridin-3-yl)-2-phenyl-5,7-diazaspiro[3.4]octan-6-one] showed a Ki [1, 3] of 1810 nM and a Ki [2, 5] of 5890 nM.
Compound `Cc1cc(C(C)(C)O)ncc1N1C[C@]2(C[C@](c3ccccc3)(N(C)C)C2)NC1=O` [SC-20, Cis-2-(dimethylamino)-7-(6-(2-hydroxypropan-2-yl)-4-methylpyridin-3-yl)-2-phenyl-5,7-diazaspiro[3.4]octan-6-one] has a Ki [1, 3] of 1160 nM and a Ki [2, 5] of 5840 nM.
Compound `Cc1cc(C(C)(C)O)ccc1N1C[C@]2(C[C@](c3ccccc3)(N(C)C)C2)NC1=O` [SC-21, Cis-2-(dimethylamino)-7-(4-(2-hydroxypropan-2-yl)-2-methylphenyl)-2-phenyl-5,7-diazaspiro[3.4]octan-6-one] has a Ki [1, 3] of 775 nM and a Ki [2, 5] of 3580 nM.
`Cc1cc(C(F)F)ncc1N1C[C@]2(C[C@](c3cccc(F)c3)(N(C)C)C2)NC1=O` [SC-22, cis-7-(6-(difluoromethyl)-4-methylpyridin-3-yl)-2-(dimethylamino)-2-(3-fluorophenyl)-5,7-diazaspiro[3.4]octan-6-one] was tested, and the Ki [1, 3] was 380 nM and the inhibition at 1 µM [2, 4] was 11%.
For `CN(C)[C@]1(c2cccc(F)c2)C[C@@]2(CN(c3ccc(OC(F)(F)F)cn3)C(=O)N2CC2(F)COC2)C1` [SC-23, Cis- -2-(dimethylamino)-5-((3-fluorooxetan-3-yl)methyl)-2-(3-fluorophenyl)-7-(5-(trifluoromethoxy)pyridin-2-yl)-5,7-diazaspiro[3.4]octan-6-one], the Ki [1, 3] was 25 nM and the Ki [2, 5] was 545 nM.
`Cc1cc(C(F)F)ncc1N1C[C@]2(C[C@](c3cccc(F)c3)(N(C)C)C2)N(CC2CC2)C1=O` [SC-24, Cis-5-(cyclopropylmethyl)-7-(6-(difluoromethyl)-4-methylpyridin-3-yl)-2-(dimethylamino)-2-(3-fluorophenyl)-5,7-diazaspiro[3.4]octan-6-one] showed a Ki [1, 3] of 23 nM and a Ki [2, 5] of 1180 nM.
Work on `CN(C)[C@]1(c2cccc(F)c2)C[C@@]2(CN(c3ccc(OC(F)(F)F)cn3)C(=O)N2CC2(F)CC2)C1` [SC-26, Cis-2-(dimethylamino)-5-((1-fluorocyclopropyl)methyl)-2-(3-fluorophenyl)-7-(5-(trifluoromethoxy)pyridin-2-yl)-5,7-diazaspiro[3.4]octan-6-one] yielded a Ki [1, 3] of 91 nM and a Ki [2, 5] of 1020 nM.
In the case of `CN(C)[C@]1(c2cccc(F)c2)C[C@@]2(CN(c3ccc(OC(F)(F)F)cn3)C(=O)N2CC2(O)CCC2)C1` [SC-27, Cis-2-(dimethylamino)-2-(3-fluorophenyl)-5-((1-hydroxycyclobutyl)methyl)-7-(5-(trifluoromethoxy)pyridin-2-yl)-5,7-diazaspiro[3.4]octan-6-one], the Ki [1, 3] is reported as 12 nM and the Ki [2, 5] is reported as 335 nM.
In the case of `CN(C)[C@]1(c2cccc(F)c2)C[C@@]2(CN(c3ccc(C(C)(C)O)cc3)C(=O)N2CC2CC2)C1` [SC-28, Cis-5-(cyclopropylmethyl)-2-(dimethylamino)-2-(3-fluorophenyl)-7-(4-(2-hydroxypropan-2-yl)phenyl)-5,7-diazaspiro[3.4]octan-6-one], the Ki [1, 3] is reported as 46 nM and the Ki [2, 5] is reported as 78 nM.
`CN(C)[C@]1(c2ccccc2)C[C@@]2(CN(c3ccc(OC(F)(F)F)cn3)C(=O)N2CC2(F)COC2)C1` [SC-29, Cis-2-(dimethylamino)-5-((3-fluorooxetan-3-yl)methyl)-2-phenyl-7-(5-(trifluoromethoxy)pyridin-2-yl)-5,7-diazaspiro[3.4]octan-6-one] was tested, and the Ki [1, 3] was 16 nM and the Ki [2, 5] was 65 nM.
